Source: patent US20160176867A1, “MODIFIED BET-PROTEIN-INHIBITING DIHYDROQUINOXALINONES AND DIHYDROPYRIDOPYRAZINONES” (BAYER PHARMA AKTIENGESELLSCHAFT, priority 2013, published 2016)

How the values were obtained:
[1] = system: MOLP-8 cells; experiment: Cell proliferation assay (alamarBlue), MOLP-8; format: cell-based; conditions: Homo sapiens; MOLP-8 (multiple myeloma), 120 hours
Description: (§1) In accordance with the invention, the ability of the substances to inhibit cell proliferation was determined. Cell viability was determined by means of the alamarBlue® reagent (Invitrogen) in a Victor X3 Multilabel Reader (Perkin Elmer). The excitation wavelength was 530 nm and the emission wavelength […].
The MOLP-8 cells (DSMZ, ACC 569) were sown at a concentration of 4000 cells/well in 100 μl of growth medium (RPMI1640, 20% FCS) on 96-well microtitre plates.
(§2) After overnight incubation at 37° C., the fluorescence values were determined (CI values). Then the plates were treated with various substance dilutions (1E-5 M, 3E-6 M, 1E-6 M, 3E-7 M, 1E-7 M, 3E-8 M, 1E-8 M) and incubated at 37° C. over 96 hours (MOLM-13, B16F10, CHL-1 cells) or 120 hours (MOLP-8 cells). Subsequently, the fluorescence values were determined (CO values). For the data analysis, the CI values were subtracted from the CO values and the results were compared between cells which had been treated with various dilutions of the substance or only with buffer solution. The IC50 values (substance concentration needed for 50% inhibition of cell proliferation) were calculated therefrom.

[2] = molecular target: T1, BRD4 bromo domain 2 [BRD4(2)] (Homo sapiens, UniProt O60885); experiment: BRD4/acetylated peptide H4 binding assay (TR-FRET), BRD4 bromo domain 2; conditions: inhibition of BRD4(2)/Ac-H4 peptide interaction
T1 construct: N-terminally His6-tagged BRD4(2) (amino acids 357-445); made in house; host or cells: E. coli
Summary of the method: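 Binding of His6-BRD4(2) (aa 357-445, 100 nM final) to biotinylated tetra-acetylated H4 peptide read by TR-FRET (665/620 nm). Compound preincubated 10 min at 22 °C, then 1 h at 22 °C plus ≥3 h at 4 °C. Eleven concentrations (0.1 nM–20 μM) in duplicate; IC50 by 4-parameter fit.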

[3] = system: B16F10 cells; experiment: Cell proliferation assay (alamarBlue), B16F10; format: cell-based; conditions: Mus musculus, B16-F10; B16F10 (melanoma, BRAF wild-type), 96 hours
Description: as §1
The B16F10 cells (ATCC, CRL-6475) were sown at a concentration of 300-500 cells/well in 100 μl of growth medium (DMEM with phenol red, 10% FCS) on 96-well microtitre plates.
as §2

Compound	IC50 [1] [nM]	IC50 [2] [nM]	IC50 [3] [nM]
COc1ccc(C(=O)NC2CCN(C)CC2)cc1Nc1ccc2c(n1)N(C1CCOCC1)[C@H](C)C(=O)N2C [Example 16, 3-{[(3R)-1,3-Dimethyl-2-oxo-4-(tetrahydro-2H-pyran-4-yl)-1,2,3,4-tetrahydropyrido[2,3-b]pyrazin-6-yl]amino}-4-methoxy-N-(1-methylpiperidin-4-yl)benzamide]	306	174	1140
C[C@@H]1C(=O)N(C)c2ccc(Nc3cccc(S(=O)(=O)NC4CCN(C)CC4)c3)nc2N1C1CCOCC1 [Example 20, 3-{[(3R)-1,3-Dimethyl-2-oxo-4-(tetrahydro-2H-pyran-4-yl)-1,2,3,4-tetrahydropyrido[2,3-b]pyrazin-6-yl]amino}-N-(1-methylpiperidin-4-yl)benzenesulphonamide]	190	52	556
C[C@@H]1C(=O)N(C)c2ccc(Nc3cccc(S(=O)(=O)NCCN(C)C)c3)nc2N1C1CCOCC1 [Example 21]	175	53	626
CCNS(=O)(=O)c1cccc(Nc2ccc3c(n2)N(C2CCOCC2)[C@H](C)C(=O)N3C)c1 [Example 23, 3-{[(3R)-1,3-dimethyl-2-oxo-4-(tetrahydro-2H-pyran-4-yl)-1,2,3,4-tetrahydropyrido[2,3-b]pyrazin-6-yl]amino}-N-ethylbenzenesulphonamide]	37	39	44
C[C@@H]1C(=O)N(C)c2ccc(Nc3cccc(S(=O)(=O)N4CCCC4)c3)nc2N1C1CCN(C)CC1 [Example 24, (3R)-1,3-Dimethyl-4-(1-methylpiperidin-4-yl)-6-{[3-(pyrrolidin-1-ylsulphonyl)phenyl]amino}-3,4-dihydropyrido[2,3-b]pyrazin-2(1H)-one]	11	55	112
COc1ccc(S(=O)(=O)N2CCOCC2)cc1Nc1ccc2c(n1)N(C1CCN(C)CC1)[C@H](C)C(=O)N2C [Example 25, (3R)-6-{[2-Methoxy-5-(morpholin-4-ylsulphonyl)phenyl]amino}-1,3-dimethyl-4-(1-methylpiperidin-4-yl)-3,4-dihydropyrido[2,3-b]pyrazin-2(1H)-one]	11	56	43
C[C@@H]1C(=O)N(C)c2ccc(Nc3cccc(S(=O)(=O)NC4CC4)c3)nc2N1C1CCOCC1 [Example 26, N-Cyclopropyl-3-{[(3R)-1,3-dimethyl-2-oxo-4-(tetrahydro-2H-pyran-4-yl)-1,2,3,4-tetrahydropyrido[2,3-b]pyrazin-6-yl]amino}benzenesulphonamide]	24	31	25
C[C@@H]1C(=O)N(C)c2ccc(Nc3cccc(S(=O)(=O)N4CCCC4)c3)nc2N1C1CCOCC1 [Example 27, (3R)-1,3-Dimethyl-6-{[3-(pyrrolidin-1-ylsulphonyl)phenyl]amino}-4-(tetrahydro-2H-pyran-4-yl)-3,4-dihydropyrido[2,3-b]pyrazin-2(1H)-one]	30	40	60
COc1ccc(S(=O)(=O)N2CCOCC2)cc1Nc1ccc2c(n1)N(C1CCOCC1)[C@H](C)C(=O)N2C [Example 28, (3R)-6-{[2-Methoxy-5-(morpholin-4-ylsulphonyl)phenyl]amino}-1,3-dimethyl-4-(tetrahydro-2H-pyran-4-yl)-3,4-dihydropyrido[2,3-b]pyrazin-2(1H)-one]	18	53	30
C[C@@H]1C(=O)N(C)c2ccc(Nc3cccc(S(=O)(=O)N4CC(F)(F)C4)c3)nc2N1C1CCN(C)CC1 [Example 29, (3R)-6-({3-[(3,3-Difluoroazetidin-1-yl)sulphonyl]phenyl}amino)-1,3-dimethyl-4-(1-methylpiperidin-4-yl)-3,4-dihydropyrido[2,3-b]pyrazin-2(1H)-one]	41	64	230
COc1ccc(S(=O)(=O)N2CC3(COC3)C2)cc1Nc1ccc2c(n1)N(C1CCOCC1)[C@H](C)C(=O)N2C [Example 30, (3R)-6-{[2-Methoxy-5-(2-oxa-6-azaspiro[3.3]hept-6-ylsulphonyl)phenyl]amino}-1,3-dimethyl-4-(tetrahydro-2H-pyran-4-yl)-3,4-dihydropyrido[2,3-b]pyrazin-2(1H)-one]	96	58	165
C[C@@H]1C(=O)N(C)c2ccc(Nc3cccc(S(=O)(=O)NC4CCN(C)CC4)c3)nc2N1Cc1ccccc1 [Example 33, 3-{[(3R)-4-benzyl-1,3-dimethyl-2-oxo-1,2,3,4-tetrahydropyrido[2,3-b]pyrazin-6-yl]amino}-N-(1-methylpiperidin-4-yl)benzenesulphonamide]	12	76	157
CC(C)N1c2nc(Nc3cccc(S(=O)(=O)N[C@H]4CC[C@H](N5CCN(CC6CC6)CC5)CC4)c3)ccc2N(C)C(=O)[C@H]1C [Example 34, N-{trans-4-[4-(cyclopropylmethyl)piperazin-1-yl]cyclohexyl}-3-{[(3R)-4-isopropyl-1,3-dimethyl-2-oxo-1,2,3,4-tetrahydropyrido[2,3-b]pyrazin-6-yl]amino}-benzenesulphonamide]	20	125	202
C[C@@H]1C(=O)N(C)c2ccc(Nc3cccc(S(=O)(=O)N[C@H]4CC[C@H](N5CCN(CC6CC6)CC5)CC4)c3)nc2N1C1CCOCC1 [Example 35, N-{trans-4-[4-(cyclopropylmethyl)-piperazin-1-yl]cyclohexyl}-3-{[(3R)-1,3-dimethyl-2-oxo-4-(tetrahydro-2H-pyran-4-yl)-1,2,3,4-tetrahydropyrido[2,3-b]pyrazin-6-yl]amino}-benzenesulphonamide]	23	69	146
C[C@@H]1C(=O)N(C)c2ccc(Nc3cccc(S(=O)(=O)N4CCN(CC(F)(F)F)CC4)c3)nc2N1C1CCOCC1 [Example 37, (3R)-1,3-dimethyl-4-(tetrahydro-2H-pyran-4-yl)-6-[(3-{[4-(2,2,2-trifluoroethyl)piperazin-1-yl]sulphonyl}phenyl)-amino]-3,4-dihydropyrido-[2,3-b]pyrazin-2(1H)-one]	65	16	93
C[C@@H]1C(=O)N(C)c2ccc(Nc3cccc(S(=O)(=O)N[C@H]4CC[C@H](N5CCN(CC6CC6)CC5)CC4)c3)nc2N1Cc1ccccc1 [Example 38, 3-{[(3R)-4-benzyl-1,3-dimethyl-2-oxo-1,2,3,4-tetrahydropyrido[2,3-b]pyrazin-6-yl]amino}-N-{trans-4-[4-(cyclopropyl-methyl)piperazin-1-yl]cyclohexyl}-benzenesulphonamide]	12	48	190
CNS(=O)(=O)c1cccc(Nc2ccc3c(n2)N(C2CCOCC2)[C@H](C)C(=O)N3C)c1 [Example 39, 3-{[(3R)-1,3-dimethyl-2-oxo-4-(tetrahydro-2H-pyran-4-yl)-1,2,3,4-tetrahydropyrido[2,3-b]pyrazin-6-yl]amino}-N-methylbenzenesulphon-amide]	91	135	149
COc1ccc(S(=O)(=O)N2CCN(C)CC2)cc1Nc1ccc2c(n1)N(C1CCOCC1)[C@H](C)C(=O)N2C [Example 40, (3R)-6-({2-methoxy-5-[(4-methylpiperazin-1-yl)sulphonyl]phenyl}-amino)-1,3-dimethyl-4-(tetrahydro-2H-pyran-4-yl)-3,4-dihydropyrido[2,3-b]pyrazin-2(1H)-one]	73	52	314
C[C@@H]1C(=O)N(C)c2ccc(Nc3cccc(S(=O)(=O)N(C)C)c3)nc2N1C1CCN(C)CC1 [Example 41, 3-{[(3R)-1,3-dimethyl-4-(1-methylpiperidin-4-yl)-2-oxo-1,2,3,4-tetrahydropyrido[2,3-b]pyrazin-6-yl]amino}-N,N-dimethylbenzene-sulphonamide]	17	43	52
CC(C)N1c2nc(Nc3cccc(S(=O)(=O)N4CCN(C)CC4)c3)ccc2N(C)C(=O)[C@H]1C [Example 43, (3R)-4-isopropyl-1,3-dimethyl-6-({3-[(4-methylpiperazin-1-yl)sulphonyl]phenyl}-amino)-3,4-dihydropyrido-[2,3-b]pyrazin-2(1H)-one]	144	96	537
